Assay results reported in ChEMBL document CHEMBL1156872, “Synthesis and discovery of 2,3-dihydro-3,8-diphenylbenzo[1,4]oxazines as a novel class of potent cholesteryl ester transfer protein inhibitors” (Bioorg Med Chem Lett, 2010).
In brackets after ≈: the same amount, converted by molar mass.

What was measured:
[1] = target: T1, Cholesteryl ester transfer protein (Homo sapiens, UniProt P11597); experiment: Inhibition of human cholesteryl ester transfer protein by scintillation proximity assay
T1 sequence (P11597 whole entry): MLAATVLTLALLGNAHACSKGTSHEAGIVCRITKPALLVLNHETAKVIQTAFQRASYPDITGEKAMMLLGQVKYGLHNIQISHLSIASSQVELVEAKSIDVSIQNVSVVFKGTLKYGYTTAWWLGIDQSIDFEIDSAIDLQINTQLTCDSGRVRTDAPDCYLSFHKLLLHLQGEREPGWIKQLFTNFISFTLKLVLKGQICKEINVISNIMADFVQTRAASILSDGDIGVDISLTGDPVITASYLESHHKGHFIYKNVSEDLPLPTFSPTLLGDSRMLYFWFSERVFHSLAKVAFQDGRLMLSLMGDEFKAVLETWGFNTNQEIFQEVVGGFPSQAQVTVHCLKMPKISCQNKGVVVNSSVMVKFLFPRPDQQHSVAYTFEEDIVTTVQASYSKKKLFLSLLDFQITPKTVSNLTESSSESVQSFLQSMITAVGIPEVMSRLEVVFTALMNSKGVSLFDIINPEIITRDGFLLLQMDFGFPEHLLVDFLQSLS

[2] = target: T2, Cholesteryl ester transfer protein (Homo sapiens) (UniProt P11597); experiment: Inhibition of human cholesteryl ester transfer protein at 1 uM by scintillation proximity assay
T2 sequence (whole entry): T1 sequence (P11597 whole entry)

[3] = Half life in human liver microsomes; assay type: ADME, Microsome
Cytochrome P450 2D6 = Cytochrome P450 2D6 (Homo sapiens, UniProt P10635); experiment: Inhibition of CYP2D6 in human liver microsomes; assay type: ADME, Microsome
[4] = target: T1, Cholesteryl ester transfer protein; experiment: Inhibition of cholesteryl ester transfer protein in human plasma by [3H]CE HDL assay; assay type: cell-free
Cytochrome P450 1A2 = target: T3, Cytochrome P450 1A2 (Homo sapiens, UniProt P05177); experiment: Inhibition of CYP1A2 in human liver microsomes; assay type: ADME, Microsome
T3 sequence (P05177 whole entry): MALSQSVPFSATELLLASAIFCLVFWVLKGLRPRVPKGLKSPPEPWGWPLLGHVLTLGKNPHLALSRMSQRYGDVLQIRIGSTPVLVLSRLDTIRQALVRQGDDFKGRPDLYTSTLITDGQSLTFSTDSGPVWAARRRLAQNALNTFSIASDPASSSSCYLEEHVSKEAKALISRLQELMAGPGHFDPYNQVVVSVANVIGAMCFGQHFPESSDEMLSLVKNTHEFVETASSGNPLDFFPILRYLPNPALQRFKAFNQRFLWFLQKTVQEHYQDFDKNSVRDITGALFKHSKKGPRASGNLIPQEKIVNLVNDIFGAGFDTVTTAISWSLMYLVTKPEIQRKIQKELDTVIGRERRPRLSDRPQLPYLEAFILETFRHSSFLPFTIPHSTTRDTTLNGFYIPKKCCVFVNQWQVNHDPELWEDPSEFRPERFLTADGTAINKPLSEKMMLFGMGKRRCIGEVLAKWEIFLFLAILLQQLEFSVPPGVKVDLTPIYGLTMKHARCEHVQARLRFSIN

Cytochrome P450 2C9 = Cytochrome P450 2C9 (Homo sapiens, UniProt P11712); experiment: Inhibition of CYP2C9 in human liver microsomes; assay type: ADME, Microsome
Cytochrome P450 2C19 = Cytochrome P450 2C19 (Homo sapiens, UniProt P33261); experiment: Inhibition of CYP2C19 in human liver microsomes; assay type: ADME, Microsome
Cytochrome P450 3A4 [5] = target: T4, Cytochrome P450 3A4 (Homo sapiens, UniProt P08684); experiment: Inhibition of CYP3A4 […] isoform in human liver microsomes; assay type: ADME, Microsome
Cytochrome P450 3A4 [6] = target: T4, Cytochrome P450 3A4; experiment: Inhibition of CYP3A4 tissue isoform in human liver microsomes; assay type: ADME, Microsome
[7] = Oral bioavailability in rat at 10 mg/kg; assay type: ADME, organism-based; settings: in vivo
[8] = AUC in rat at 10 mg/kg, po and 2 mg/kg, iv; assay type: ADME, organism-based; settings: plasma
[9] = Tmax in rat at 10 mg/kg, po and 2 mg/kg, iv; assay type: ADME, organism-based; settings: in vivo
[10] = Clearance in rat at 10 mg/kg, po and 2 mg/kg, iv; assay type: ADME, organism-based; settings: in vivo
[11] = Volume of distribution at steady state in rat at 10 mg/kg, po and 2 mg/kg, iv; assay type: ADME, organism-based; settings: in vivo, read-out: Vdss
Mus musculus [12] = experiment: Increase in HDL cholesterol level in normal chow diet fed female CETP transgenic mouse at 3 mg/kg, po after 5 days; assay type: functional
Mus musculus [13] = experiment: Increase in HDL cholesterol level in normal chow diet fed female CETP transgenic mouse at 10 mg/kg, po after 5 days; assay type: functional
Mus musculus [14] = experiment: Increase in HDL cholesterol level in normal chow diet fed female CETP transgenic mouse at 30 mg/kg, po after 5 days; assay type: functional
Mus musculus [15] = experiment: Increase in HDL cholesterol level in normal chow diet fed male CETP transgenic mouse at 3 mg/kg, po after 5 days; assay type: functional
Mus musculus [16] = experiment: Increase in HDL cholesterol level in normal chow diet fed male CETP transgenic mouse at 10 mg/kg, po after 5 days; assay type: functional
Mus musculus [17] = experiment: Increase in HDL cholesterol level in normal chow diet fed male CETP transgenic mouse at 30 mg/kg, po after 5 days; assay type: functional
Hamster [18] = experiment: Increase in HDL cholesterol level in high fat diet fed hamster at 10 mg/kg, po after 5 days; assay type: functional, Cricetinae
Hamster [19] = experiment: Increase in HDL cholesterol level in high fat diet fed hamster at 30 mg/kg, po after 5 days; assay type: functional, Cricetinae
[20] = Aqueous solubility at pH 2.0; assay type: physicochemical; settings: aqueous medium
[21] = Aqueous solubility at pH 7.4; assay type: physicochemical; settings: aqueous medium

T4 sequence (P08684 whole entry, canonical isoform): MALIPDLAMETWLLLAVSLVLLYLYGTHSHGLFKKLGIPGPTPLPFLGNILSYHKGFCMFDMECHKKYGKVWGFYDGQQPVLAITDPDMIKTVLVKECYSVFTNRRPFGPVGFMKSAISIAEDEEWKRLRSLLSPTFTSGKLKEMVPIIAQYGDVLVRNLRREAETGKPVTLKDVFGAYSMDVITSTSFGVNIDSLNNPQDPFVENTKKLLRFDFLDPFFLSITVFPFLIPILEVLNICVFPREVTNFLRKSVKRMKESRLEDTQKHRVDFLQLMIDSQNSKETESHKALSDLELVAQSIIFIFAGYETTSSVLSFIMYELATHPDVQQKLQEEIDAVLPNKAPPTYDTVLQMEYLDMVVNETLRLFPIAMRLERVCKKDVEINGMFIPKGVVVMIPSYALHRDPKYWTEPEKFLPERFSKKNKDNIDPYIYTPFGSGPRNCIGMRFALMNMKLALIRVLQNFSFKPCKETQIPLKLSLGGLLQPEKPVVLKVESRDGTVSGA
Cytochrome P450 2C19, sequence (P33261 whole entry, canonical isoform): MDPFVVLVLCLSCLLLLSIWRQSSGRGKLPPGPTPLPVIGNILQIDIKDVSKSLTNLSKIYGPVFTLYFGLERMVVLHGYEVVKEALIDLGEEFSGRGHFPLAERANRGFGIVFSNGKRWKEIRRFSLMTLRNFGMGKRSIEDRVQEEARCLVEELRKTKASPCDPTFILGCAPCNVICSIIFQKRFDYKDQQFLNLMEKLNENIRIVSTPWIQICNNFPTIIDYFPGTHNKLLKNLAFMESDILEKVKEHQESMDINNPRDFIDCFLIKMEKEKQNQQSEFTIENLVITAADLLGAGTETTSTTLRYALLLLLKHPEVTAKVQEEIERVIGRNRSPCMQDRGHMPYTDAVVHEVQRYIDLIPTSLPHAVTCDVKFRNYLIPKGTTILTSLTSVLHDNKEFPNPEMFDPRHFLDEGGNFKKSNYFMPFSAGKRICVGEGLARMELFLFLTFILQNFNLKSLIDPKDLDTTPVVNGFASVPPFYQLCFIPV
Cytochrome P450 2C9, sequence (P11712 whole entry): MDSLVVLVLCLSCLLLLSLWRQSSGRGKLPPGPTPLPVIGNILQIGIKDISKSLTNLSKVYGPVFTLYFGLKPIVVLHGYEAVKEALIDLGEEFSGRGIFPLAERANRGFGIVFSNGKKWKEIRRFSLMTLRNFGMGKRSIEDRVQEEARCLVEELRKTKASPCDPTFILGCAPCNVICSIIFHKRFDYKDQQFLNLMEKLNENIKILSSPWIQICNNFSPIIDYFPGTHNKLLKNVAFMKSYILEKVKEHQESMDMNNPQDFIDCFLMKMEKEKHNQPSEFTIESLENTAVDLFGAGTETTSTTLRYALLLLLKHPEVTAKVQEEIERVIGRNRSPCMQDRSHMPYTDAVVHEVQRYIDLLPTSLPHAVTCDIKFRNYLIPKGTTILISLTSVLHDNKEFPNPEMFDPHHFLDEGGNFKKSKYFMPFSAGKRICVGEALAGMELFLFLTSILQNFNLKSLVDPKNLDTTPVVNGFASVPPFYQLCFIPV
Cytochrome P450 2D6, sequence (P10635 whole entry): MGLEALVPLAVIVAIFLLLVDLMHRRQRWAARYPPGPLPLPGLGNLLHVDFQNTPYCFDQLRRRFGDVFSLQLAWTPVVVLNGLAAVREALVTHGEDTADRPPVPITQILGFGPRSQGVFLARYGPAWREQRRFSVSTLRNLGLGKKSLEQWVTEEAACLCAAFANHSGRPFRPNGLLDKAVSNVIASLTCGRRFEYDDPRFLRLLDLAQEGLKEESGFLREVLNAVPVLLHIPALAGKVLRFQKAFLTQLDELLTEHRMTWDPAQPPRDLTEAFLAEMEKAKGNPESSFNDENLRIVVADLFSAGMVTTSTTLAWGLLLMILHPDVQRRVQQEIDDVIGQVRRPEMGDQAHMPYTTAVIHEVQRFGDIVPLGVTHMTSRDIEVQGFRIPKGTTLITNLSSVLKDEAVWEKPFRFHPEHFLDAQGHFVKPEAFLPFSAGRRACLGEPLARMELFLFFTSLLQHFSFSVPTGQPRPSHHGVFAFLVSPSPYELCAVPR

O[C@@H](CN1c2cccc(-c3cccc(OC(F)(F)F)c3)c2OC[C@@H]1c1cccc(OC(F)(F)F)c1)C(F)(F)F
IC50 [1]: 133 nM
inhibition [2]: 69%

OCCN1c2cccc(-c3cccc(OC(F)(F)F)c3)c2OCC1c1cccc(OC(F)(F)C(F)F)c1 (racemic)
inhibition [2]: 29%

COCCN1c2cccc(-c3cccc(OC(F)(F)F)c3)c2OCC1c1cccc(OC(F)(F)C(F)F)c1 (racemic)
inhibition [2]: 25%

CN(C)CCN1c2cccc(-c3cccc(OC(F)(F)F)c3)c2OCC1c1cccc(OC(F)(F)C(F)F)c1 (racemic)
inhibition [2]: 9%

OC(CN1c2cccc(-c3cccc(OC(F)(F)F)c3)c2OCC1c1cccc(SC(F)(F)F)c1)C(F)(F)F (mixture of isomers)
inhibition [2]: 68%

O[C@@H](CN1c2cccc(-c3cc(C(F)(F)F)cc(C(F)(F)F)c3)c2OC[C@@H]1c1cccc(OC(F)(F)C(F)F)c1)C(F)(F)F
inhibition [2]: 59%

OC(CN1c2cccc(-c3cccc(OC(F)(F)F)c3)c2OCC1c1ccc(OC(F)(F)C(F)F)cc1)C(F)(F)F (mixture of isomers)
inhibition [2]: 33%

OC[C@@H](O)CN1c2cccc(-c3cccc(OC(F)(F)F)c3)c2OC[C@@H]1c1cccc(OC(F)(F)C(F)F)c1
inhibition [2]: 27%

O=C(CN1c2cccc(-c3cccc(OC(F)(F)F)c3)c2OC[C@@H]1c1cccc(OC(F)(F)C(F)F)c1)C(F)(F)F
inhibition [2]: 5%

O[C@@H](CN1c2cccc(-c3cc(F)cc(F)c3)c2OC[C@@H]1c1cccc(OC(F)(F)C(F)F)c1)C(F)(F)F
inhibition [2]: 100%

FC(F)C(F)(F)Oc1cccc(C2COc3c(-c4cccc(OC(F)(F)F)c4)cccc3N2CCN2CCOCC2)c1 (racemic)
inhibition [2]: 0%

OC(CN1c2cccc(-c3cccc(OC(F)(F)F)c3)c2OCC1c1ccc(OC(F)(F)F)cc1)C(F)(F)F (mixture of isomers)
inhibition [2]: 38%

OC(CN1c2cccc(-c3cccc(OC(F)(F)F)c3)c2OCC1c1cccc(Cl)c1)C(F)(F)F (mixture of isomers)
inhibition [2]: 62%

O[C@@H](CN1c2cccc(-c3cccc(OC(F)(F)F)c3)c2OC[C@H]1c1cccc(OC(F)(F)C(F)F)c1)C(F)(F)F
inhibition [2]: 14%

CC1(C)OC[C@@H](CN2c3cccc(-c4cccc(OC(F)(F)F)c4)c3OC[C@@H]2c2cccc(OC(F)(F)C(F)F)c2)O1 (mixture of isomers)
inhibition [2]: 25%

CC(=O)CN1c2cccc(-c3cccc(OC(F)(F)F)c3)c2OC[C@@H]1c1cccc(OC(F)(F)C(F)F)c1
inhibition [2]: 5%

CCCN1c2cccc(-c3cccc(OC(F)(F)F)c3)c2OCC1c1cccc(OC(F)(F)C(F)F)c1 (racemic)
inhibition [2]: 39%

OC(CN1c2cccc(-c3cccc(F)c3)c2OCC1c1cccc(OC(F)(F)C(F)F)c1)C(F)(F)F (mixture of isomers)
inhibition [2]: 79%

OC(CN1c2cccc(-c3cccc(OC(F)(F)F)c3)c2OCC1c1ccc2c(c1)OC(F)(F)O2)C(F)(F)F (mixture of isomers)
IC50 [1]: 271 nM
inhibition [2]: 48%

CC(C)C(O)CN1c2cccc(-c3cccc(OC(F)(F)F)c3)c2OCC1c1cccc(OC(F)(F)C(F)F)c1 (mixture of isomers)
IC50 [1]: 129 nM
inhibition [2]: 86%

O[C@@H](CN1c2cccc(-c3cccc(OC(F)(F)F)c3)c2OC[C@@H]1c1cccc(OC(F)(F)C(F)F)c1)C(F)(F)F
inhibition [2]: 91%
half-life [3]: 1.03 h
IC50 (Cytochrome P450 2D6): > 100000 nM
IC50 [4]: 1000 nM
IC50 (Cytochrome P450 1A2): > 100000 nM
IC50 (Cytochrome P450 2C9): > 100000 nM
IC50 (Cytochrome P450 2C19): > 100000 nM
IC50 (Cytochrome P450 3A4 [5]): > 100000 nM
IC50 (Cytochrome P450 3A4 [6]): > 100000 nM
bioavailability [7]: 53%
AUC [8]: 19800 ng·h/mL
Tmax [9]: 11.5 h
clearance [10]: 4.6 mL/min/kg
Vd [11]: 0.73 L/kg
Activity (Mus musculus [12]): 4%
Activity (Mus musculus [13]): 8%
Activity (Mus musculus [14]): 24%
Activity (Mus musculus [15]): 11%
Activity (Mus musculus [16]): 10%
Activity (Mus musculus [17]): 28%
Activity (Hamster [18]): 9%
Activity (Hamster [19]): 16%
solubility [20]: 11 µg/mL (≈ 18.4 µM)
solubility [21]: 2.7 µg/mL (≈ 4.5 µM)

O[C@@H](CF)CN1c2cccc(-c3cccc(OC(F)(F)F)c3)c2OC[C@@H]1c1cccc(OC(F)(F)C(F)F)c1
inhibition [2]: 55%
